# Measurements from US5364871A, “New thiazole derivatives, and pharmaceutical composition comprising the same” (Fujisawa Pharmaceutical Co., Ltd., priority 1989, dated 1994).
# Assays:
# [1] = test system: Helicobacter pyloridis 8008; assay: Test D: Anti-microbial activity (agar dilution method); format: cell-based; settings: 72 h, Brucella agar plus 5% lysed horse blood, 37° C., 3 days, 10% CO2
# Protocol: Test D (Anti-microbial activity):
# In vitro antimicrobial activity was determined by the agar dilution method. Test strain was precultured in Brucella broth containing 5% horse serum at 37° C. for 3 days 10^4 cfu were inoculated with a multipoint replicater onto Brucella agar plus 5% lysed horse blood plate containing serial 2-fold dilutions of each drug at 37° C. for 3 days. Incubation was carried out in an atmosphere of 10% CO2. MIC was read after incubation as the lowest drug concentration that inhibited macroscopic colonial growth.
# [2] = test system: HCl-aspirin ulcer; assay: Test E: Inhibition of HCl-aspirin ulcer; format: in vivo, male Sprague-Dawley rats; settings: length of ulcers; 32 mg/kg orally 30 minutes before aspirin (200 mg/kg in 0.2N HCl); rats
# Protocol: Test E (Inhibition of HCl-aspirin ulcer):
# Seven male Sprague-Dawley rats, aged 6 weeks and weighing about 200 g were used per group for the study on HCl-aspirin ulcer after the fast for 24 hours. Each of the test compounds (32 mg/kg) suspended in 0.1% methylcellulose solution was administered orally 30 minutes before aspirin administration. Aspirin, suspended in 0.1% methylcellulose solution containing 0.2N HCl, was administered orally at a dose of 200 mg/kg/10 ml. One hour later, the animals were sacrificed and their stomachs were removed. The stomach was then fixed with 2% formalin. The length of ulcers was measured for each animal, and percentage of inhibition was calculated by comparing the mean length of ulcers (mm) in the test animals with that in the control animals.
# [3] = test system: Gastric secretion; assay: Test C: Gastric secretion from lumen perfused stomach in anesthetized rats; format: in vivo, Male Sprague-Dawley rats; settings: maximal inhibition of acid output, histamine (3 mg/kg/hr) stimulated, 1 mg/kg intravenously
# Protocol: Test C (Gastric secretion from lumen perfused stomach
# Male Sprague-Dawley rats weighing about 250 g were used. Rats were deprived of food but allowed free access to water for 24 hours. The animals were anesthetized with 1.25 g/kg urethane intraperitoneally. The abdomen was opened and the gastric lumen was perfured with saline throughout the experiment. The perfusate was titrated by an antotitrator with 25 mM sodium hydroxide as a titrant. Gastric secretion was stimulated by intravenous infusion with histamine (3 mg/kg/hr). After reaching plateau, test compound (1 mg/kg) was given intravenously. Drug effect was expressed as maximal inhibition by acid output.
# [4] = test system: Gastric secretion; assay: Test A: Gastric secretion in Heidenhain pouch dogs; format: in vivo; settings: total acid output, tetragastrin (10 μg/kg/hr) stimulated; 3.2 mg/kg orally; Beagle dogs
# Protocol: Test A (Gastric secretion in Heidenhain pouch dogs):
# Beagle dogs, weighing about 8-13 kg, were used for the study on gastric secretion. The animals were surgically provided with a vagally denervated Heidenhain pouch. One month or more later, the dogs were fasted overnight. Gastric secretion was stimulated by an intravenous infusion of tetragastrin (10 μg/kg/hr). Gastric samples were collected at 15 min intervals. After its volume was almost constant, test compound (3.2 mg/kg) suspended in 0.1% methyl cellulose solution was administered orally. Acid concentration was determined by titrating an aliquot to pH 7.0 with 0.1N sodium hydroxide solution using automatic titration (Hiranuma RAT-11 Type). Total acid output was calculated by multiplying total volume of gastric samples by acid concentration, and percentage change of total acid output was calculated by comparing with predosing value of test compound.
# [5] = test system: stress ulcer; assay: Test B: Inhibition of stress ulcer; format: in vivo, male Sprague-Dawley rats; settings: area of ulcers, restraint and water immersion 7 hours; 32 mg/kg orally; rats
# Protocol: Test B (Inhibition of stress ulcer):
# Five male Sprague-Dawley rats, aged 7 weeks and weighing about 200 g were used per group for the study on stress ulcer after the fast for 24 hours. Each animal was immobilized in a restrain cage and immersed to a level of the xiphoid in a water bath kept 22° C. Each of the test compounds (32 mg/kg) suspended in 0.1% methylcellulose solution was administered orally just before the immobilization. Seven hours later, the animals were sacrificed and their stomachs were removed. The stomach was then fixed with 2% formalin. The area of ulcers was measured for each animal, and percentage of inhibition was calculated by comparing the mean area of ulcers (mm^2) in the test animals with that in the control animals.
smiles,measurement,setting,value
CCCCNC(N)=Nc1nc(-c2cccc(CNC(C)=O)n2)cs1 [(e)],MIC,[1],0.78 mg/L
same,Inhibition (%),[2],98.1%
NC(=O)NCc1cccc(-c2csc(N=C(N)N)n2)n1 [(b)],Inhibition (%),[3],98%
CC(=O)NCc1cccc(-c2csc(N=C(N)N)n2)n1 [(a)],Inhibition (%),[4],95%
NC(=O)NCc1nc(-c2csc(N=C(N)N)n2)cs1 [(c)],Inhibition (%),[3],97%
CCOC(=O)c1nc(-c2csc(N=C(N)N)n2)cs1 [(d)],Inhibition (%),[5],93.9%
